Values joined by “and” are separate entries in the source; they are usually repeats but may differ in a detail not shown here. Identical values can stand only once.
Columns and labels:
[1] = Ascorbate oxidation by MPs monitored at 266 nm; assay type: biochemical; conditions: MP 10 μM, 50 μM ascorbate, 0.1 M potassium phosphate pH 7.4, ± standard error, n=3
Description: (§1) In order to test the hypothesis that Mn(II)- or Fe(II)-porphyrins would be capable of carrying out two-electron reductions of peroxynitrite and thereby decreasing rather than increasing its reactivity, attempts were made to pre-reduce these transition metal-containing MPs prior to addition of peroxynitrite.
Table V. Ascorbate oxidation by MPs. MPs (10 μM) were added to stirred cuvettes containing 0.1 M potassium phosphate, pH 7.4 and 50 μM ascorbate. Ascorbate oxidation was monitored at 266 nm (ηm=17,700 M^−1cm^−1). Oxidation rates (±standard errors) were determined by fitting the initial linear portion of each curve and averaging the rates (n=3).

[2] = Peroxynitrite-mediated nitration of GYA peptide; assay type: biochemical; conditions: 2 mM GYA, 10 μM MP, pH 7.4
Description: Nitration efficiency, defined as the moles of nitrated GYA peptide formed per mole of peroxynitrite added, was determined at a fixed concentration of 10 μM MP or Cu,Zn SOD subunit, or 1 mM CO2 as described below. Increasing amounts of peroxynitrite were added in a sequential manner in order to determine whether nitration efficiency varied with concentration and to determine whether nitration catalysis was maintained with multiple additions (see INSET). Nitration efficiency was calculated for each peroxynitrite addition; the values shown are the average of all nine peroxynitrite additions. Absorbance changes were monitored simultaneously at 380, 430, and 460 nm.
(§2) For nitration of GYA peptide (see FIG. 6), reaction solutions contained 2 mM GYA and 10 μM of the indicated MP in 1.4 ml of 0.1 M potassium phosphate, pH 7.4 at 37° C. Comparisons with two previously characterized nitration catalysts, human Cu,Zn superoxide dismutase (hCu,Zn SOD) and carbon dioxide, were made using 10 μM of SOD subunit and 25 mM potassium bicarbonate, respectively, which was pH-adjusted to 7.4. This level of bicarbonate results in rapid saturation of the solution with carbon dioxide (˜1 mM). Solutions were placed into a rapidly stirred cuvette and nine bolus additions (50 μM×3, 100 μM×3, and 200 μM×3) of peroxynitrite were made sequentially while the absorbance was monitored. Increasing amounts of peroxynitrite were added in a sequential manner in order to determine whether nitration efficiency varied with concentration and to determine whether nitration catalysis was maintained with multiple additions (see FIG. 6 inset). Nitration efficiency was defined as the amount of nitropeptide formed per amount of peroxynitrite added and was calculated for each peroxynitrite addition; the values shown are the average of all nine peroxynitrite additions. The absorbance changes associated with nitrotyrosine peptide production were monitored simultaneously at 380, 430, and 460 nm. The extinction coefficients for nitrated GYA at pH 7.4 are 4,400 M^−1cm^−1 at 430 nm and 2,200 M^−1cm^−1 at both 380 and 460 nm. […] Wavelengths used to quantify nitrotyrosine production were chosen to minimize interference by the particular metalloporphyrin used. Experiments using HPA as a nitration target (FIG. 7) contained 8 mM HPA in either 0.1 M potassium phosphate, pH 7.4 or 0.1 M sodium borate, pH 9.1.
The relative abilities of several MPs to enhance nitration of the tripeptide GYA was compared using 10 μM MP and sequential bolus additions of 50 μM (×3), 100 μM (×3), and 200 μM (×3)peroxynitrite (FIG. 6, inset).

[3] = MP 5 μM, GSH 2 mM, 0.1 M potassium phosphate pH 7.4, 37° C.
Description: Aliquots (14 μl) were removed at 10 min intervals and added to 1.4 of 0.1 M potassium phosphate, pH 7.4 containing 0.2 mM dithionitrobenzoic acid (Ellman's Reagent) and 50 μM EDTA. GSH concentration was determined by the change in 430 nm absorbance. The extinction coefficient at 430 nm was determined to be 13,900 M^−1cm^−1 using a fresh GSH solution standardized by weight.
as §1

[4] = MP-catalyzed peroxynitrite decomposition monitored at 302 nm; assay type: biochemical; conditions: 100 μM peroxynitrite
Description: Peroxynitrite (100 μM) was added to rapidly stirred cuvettes at 37° C. containing the indicated concentrations of MPs in 0.1 M potassium phosphate, pH 7.4. Ascorbate was added to 150 μM where indicated. Peroxynitrite decomposition was monitored at 302 nm using a Hewlett-Packard diode-array spectrophotometer. Apparent rates (kapparents^−1, average of n=3) were plotted versus MP concentration to determine rate constants in M^−1s^−1.
Reactions contained the indicated concentration of FeTCPPin 1.4 ml of 0.1 M potassium phosphate, pH 7.4 in the absence or presence to 150 μM ascorbic acid. Peroxynitrite (100 μM) was added to rapidly stirred cuvettes at 37° C. and the decay of peroxynitrite was monitored continuously at 302 nm. Decay data were fitted to the equation describing first order decay to obtain apparent decay rates (kapparent sec^−1). Apparent decay rates as a function of FeTCPP were fitted by linear regression and the rate constant was obtained slope of the line.
Peroxynitrite (100 μM) decomposition was determined at 302 nm using a Hewlett-Packard diode-array spectrophotometer fitted with a temperature-controlled cuvette chamber and a water-driven cuvette stirrer. Bolus additions of peroxynitrite were made to vigorously stirred cuvettes containing varying concentrations of MPs (see Table III) while data were collected at a rate of ten points/sec. […] Each reaction was repeated three times and only the first additions of peroxynitrite were averaged. Data were exported for fitting and plotting. Apparent rates of peroxynitrite decomposition were plotted as a function of metalloporphyrin concentration (as shown in FIG. 5) to determine concentration-independent rate constants at 37° C.
Rates of peroxynitrite (100 μM) decomposition were determined at different MP concentrations. Ascorbate was added to 150 μM where indicated. […] Apparent rate constants were plotted versus MP concentration (as in FIG. 5A,B) to determine true rate constants in M^−1s^−1±standard error.

[5] = Oxidation of metalloporphyrins by peroxynitrite, stopped-flow spectroscopy; assay type: biochemical; conditions: 37° C., 0.1 M potassium phosphate pH 7.4, pseudo-first order, ± standard error
Description: Peroxynitrite (in 10 mM NaOH) was rapidly mixed with the indicated MPs in 0.1 M potassium phosphate, pH 7.4 at 37° C. using a stopped-flow apparatus as described in Methods. […] A final concentration of 40 μM peroxynitrite was added to 8 μM of each of the MPs MnTBAP, MnPPIX, and FePPIX. […] INSET: Apparent rate constants for oxidation of 8 μM MnTBAP are plotted as a function of peroxynitrite concentration to illustrate how the rate constants listed in Table III were determined.
Rates of metal loporphyrin oxidation by peroxynitrite were determined using a Bio Sequential SX-18MV Applied Photophysics stopped-flow spectrofluorometer. Solutions of metalloporphyrins in 0.1 M potassium phosphate buffer, pH 7.4 were placed in one syringe and solutions of peroxynitrite in 10 mM NaOH were placed in a second syringe, both of which were submerged in a water bath at 37° C. Changes in metalloporphyrin absorbance as a function of time were recorded following triggering of syringe firing and solution mixing (instrument dead time=2 msec); a total of 1000 data points were collected over intervals ranging from 50 msec to 3 sec. […] Because the absorbance changes associated with loss of +3 forms were greater, rates of metalloporphyrin oxidation were determined by monitoring the disappearance of Mn(III)TMPyP at 462 nm, Mn(III)TBAP at 468 nm, Mn(III)PPIX at 466 nm, and Fe(III)PPIX at 464 nm. Absorbance changes as a function of time were fitted to the equation describing a first order process. The concentration of peroxynitrite was varied from five-fold to forty-fold greater than the fixed metalloporphyrin concentration in order to obtained pseudo first-order conditions (see Table III). Each concentration was injected 10 times and data were averaged automatically prior to fitting.
Rate constants for stoichiometric metalloporphyrin oxidation by peroxynitrite at 37° C. were determined under pseudo-first order reaction conditions by varying the amount of peroxynitrite added to a fixed concentration of metalloporphyrin (Table III).
In Table III, the rate of peroxynitrite-mediated oxidation of metalloporphyrins at 37° C. was determined. Apparent rate constants were determined by stopped-flow spectroscopy and plotted versus the peroxynitrite concentration (as shown for MnTBAP in FIG. 4 inset) to determine the bimolecular rate constant in M^−1s^−1±standard error. FePPIX was monitored at 387 nm, MnPPIX at 464 nm, and MnTBAP at 470 nm.

[6] = MP-catalyzed nitration of HPA: effect of pH, reductants and serum; assay type: biochemical; conditions: for enhancement of nitration yield at pH 9.1 / effect of ascorbate on nitration enhancement: 8 mM HPA, 10 μM MP; for enhancement of nitration yield at pH 9.1: 0.1 M sodium borate pH 9.1, versus non-catalyzed; for effect of ascorbate and GSH on nitration enhancement: concentrations which eliminated non-catalyzed nitration; for effect of serum on nitration enhancement: fresh human serum 1:10 added prior to peroxynitrite; for effect of ascorbate on nitration enhancement: ascorbate 150 μM, pH 7.4
Description: Single additions of 100 μM peroxynitrite were made to reactions containing ascorbate or GSH. Three sequential additions of 100 μM peroxynitrite were made to all other reactions.
as §2, with “This” for “For nitration of GYA peptide (see FIG. 6), reaction solutions contained 2 mM GYA and 10 μM of the indicated MP in 1.4 ml of 0.1 M potassium phosphate, pH 7.4 at 37° C. Comparisons with two previously characterized nitration catalysts, human Cu,Zn superoxide dismutase (hCu,Zn SOD) and carbon dioxide, were made using 10 μM of SOD subunit and 25 mM potassium bicarbonate, respectively, which was pH-adjusted to 7.4. This”

Row | SMILES | Rate of Ascorbate Oxidation [1] [µM/min] | effect on nitration [2] | rate of GSH oxidation [3] [µM/min] | Rate Constants for MP-Catalyzed Decomposition of Peroxynitrite (pH 7.4, 37° C.) ([4]; absence of added reductants) | Rate Constants for Oxidation of MPs by Peroxynitrite [5] [M⁻¹ s⁻¹] | enhancement of nitration yield at pH 9.1 [6] | effect of ascorbate and GSH on nitration enhancement [6] | effect of serum on nitration enhancement [6] | effect of HOCl on the MP (50 μM HOCl) | oxidation by H2O2 (0.5 mM H2O2, 20 min) | ascorbate concentration giving complete inhibition of nitration enhancement ([6]; dose-dependent, not shown) [mM] | effect of ascorbate on nitration enhancement [6] | Rate Constants for MP-Catalyzed Decomposition of Peroxynitrite (pH 7.4, 37° C.) ([4]; plus ascorbate 150 μM)
1 | C[n+]1ccc(-c2c3nc(c(-c4cc[n+](C)cc4)c4ccc([n-]4)c(-c4cc[n+](C)cc4)c4nc(c(-c5cc[n+](C)cc5)c5ccc2[n-]5)C=C4)C=C3)cc1.Cc1ccc(S(=O)(=O)[O-])cc1.Cc1ccc(S(=O)(=O)[O-])cc1.Cc1ccc(S(=O)(=O)[O-])cc1.Cc1ccc(S(=O)(=O)[O-])cc1.[Cu+2] [CuTMPyP, Copper (II) meso-tetra-(N-methyl-4-pyridyl)-porphine tetra tosylate] | 6.50 ± 0.32 | small but reproducible inhibitory effect | 29 |  |  |  |  |  |  |  |  |  | 
2 | C=CC1=C(C)c2cc3[n-]c(cc4nc(cc5[n-]c(cc1n2)c(C)c5CCC(=O)O)C(CCC(=O)O)=C4C)c(C)c3C=C.[Fe] [FePPIX, Iron (III) protoporphyrin IX dichloride] | 1.33 ± 0.07 |  |  | 3.7×10^5 M^−1s^−1 and 3.7 × 10^5 ± 0.2 M^−1s^−1 | 1e+06 | 5.7 fold | much less inhibitory effect | largely eliminated the nitration enhancement |  |  |  |  | 
3 | C[n+]1ccc(-c2c3nc(c(-c4cc[n+](C)cc4)c4ccc([n-]4)c(-c4cc[n+](C)cc4)c4nc(c(-c5cc[n+](C)cc5)c5ccc2[n-]5)C=C4)C=C3)cc1.[Cl-].[Cl-].[Cl-].[Cl-].[Cl-].[Fe+3] [FeTMPyP, Iron (III) meso-tetra-(N-methyl-4-pyridyl)-porphine chloride] | 146.20 ± 7.2 |  | 22 | 7.9 × 10^5 ± 0.9 M^−1s^−1 |  | 10.7 fold | much less inhibitory effect | much less effect | appeared to destroy the metal-pyrrole center | did not appear to oxidize | 1.5 |  | 
4 | C=CC1=C(C)c2cc3[n-]c(cc4[n-]c(cc5nc(cc1n2)C(C)=C5C=C)c(C)c4CCC(=O)[O-])c(CCC(=O)[O-])c3C.[H+].[H+].[Mn+2] [MnPPIX, Manganese (III) protoporphyrin IX dichloride] | 0.96 ± 0.05 |  |  |  | 99000 | did not enhance nitration yields | largely prevented the enhancement of nitration | largely eliminated the nitration enhancement |  |  |  | pronounced inhibitory effect | 
5 | O=C(O)c1ccc(-c2c3nc(c(-c4ccc(C(=O)O)cc4)c4ccc([n-]4)c(-c4ccc(C(=O)O)cc4)c4nc(c(-c5ccc(C(=O)O)cc5)c5ccc2[n-]5)C=C4)C=C3)cc1.[Mn+3] [MnTBAP, Manganese (III) tetra-(4-benzoic acid)-porphyrin] |  |  |  | no acceleration | 25000 | did not enhance nitration yields | largely prevented the enhancement of nitration | largely eliminated the nitration enhancement |  |  |  | pronounced inhibitory effect | 3.3 × 10^4 ± 0.4 M^−1s^−1

From patent publication US6372727B1, “Metalloporphyrin treatment of neurologic disease” (UAB Research Foundation, priority 1999, dated 2002)
